As a reminder, the CC50 is the concentration giving 50% cytotoxicity.

Read-outs that look alike come from different tables or passages of the source. Square brackets hold non-standard residues; d marks the D form. Peptide text beside a SMILES is read from it. Nspe = C[C@H](NCC(=O)O)c1ccccc1; Nphe = O=C(O)CNCc1ccccc1; Nlys = NCCCCNCC(=O)O

Series [1] relates to NIH 3T3 mouse fibroblast cells. As to the kind of experiment: MTS assay, NIH 3T3 cells. The class given is cell-based. An outline of the steps:
(§1)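 NIH/3T3 cells seeded at 5,000 per well, grown a day in DMEM with 10% FBS, then washed and exposed to serially diluted peptoid in HBSS together with MTS reagent. Absorbance at 490 nm read after 3 hours at 37 °C as a measure of metabolic activity; mean of six replicates.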

The next series can be described thus: MTS assay, NIH 3T3 cells. The format is cell-based, mouse. The settings on record: mouse, NIH 3T3 fibroblast cells. In short, it runs like this:
as §1

The subject of a further series is E. coli ATCC 35218. The class given is cell-based. Particulars: for E. coli MIC: ATCC 35218. The protocol: Whereas the preceding generation of molecules was designed to elucidate structure function relationships of specific molecular parameters (chirality, length, hydrophobicity, etc.), another generation compounds were designed explicitly to explore effects on selectivity. Antimicrobial activity of these compounds was tested against bacterial strains E. coli (ATTC 35218) and B. subtilis (ATTC 6633) in cation-adjusted MHB using the microdilution protocols previously described. The sequences, antimicrobial activities, hemolytic activities, and metabolic inhibitory concentrations against NIH 3T3 mouse fibroblast cells are summarized in Table 3 and the rationale of their design is described below.
Screening antibacterial assays. MICs were determined in 96-well microtiter plates in accordance with CLSI M7-A6 protocols. Peptoid solutions with 50 μL total volume were prepared using 2:1 serial dilutions. 50 i—tL of bacteria inoculum (1×10^6 CFU/mL) prepared in cation-adjusted Mueller-Hinton broth (CAMHB) was added to test wells. Control wells contained 100 μL MHB (no growth) or 50 μL inoculums with 50 μL MHB with no peptoid. […] Reported values were reproducible over three experiments, each containing two parallel trials.
Antibacterial Assays for Compositions. MICs were determined according to CLSI M7-A6 protocols in a 96-well microtiter plate. In test wells, 50 μL bacterial inoculum (1×10^6 CFU/ml) in cation-adjusted Mueller-Hinton broth (CAMHB) was added to 50 μL peptoid solution in CAMHB (prepared by 1:2 serial dilutions). Positive controls contained 50 μL inoculum and 50 μL CAMHB without peptoid. […] MIC values reported were reproducible between three independent experimental replicates, each consisting of two parallel trials.

A further series deals with human erythrocytes. As to the kind of experiment: Hemolysis assay. The class given is cell-based. In short, it runs like this:
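Peptoid dilution series (1:2 in PBS) combined with equal volume of 20 vol % human red cells from heparinised blood, 37 °C for 1 h. Released hemoglobin measured as supernatant absorbance at 350 nm post-centrifugation, scaled between PBS-only wells and 0.2 vol % Triton X-100 total lysis.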

A short description of series [2]: RP-HPLC solvent composition at elution as measure of molecular hydrophobicity. The format is physicochemical. The settings on record: Table 8; gradient 5 to 95% ACN over 45 min, C18 column, 0.2 ml/min; average of three replicates. The text has this:
An initial set of 15 ampetoid analogs was synthesized to determine whether peptoids are affected by structural and sequence modifications in a manner consistent with AMP activities. The designs for ampetoids in this library were derived from two antibacterial and selective amphipathic dodecamers, 1 and 2. Peptoid 1 [H-(Nlys-Nspe-Nspe)4-NH2] is composed of 2/3 Nspe, the peptoid analog of phenylalanine, and 1/3 Mys, the peptoid analog of lysine (see FIG. 1 for the structures of representative peptoid monomers and corresponding N-substituents). Peptoid 2 [H-(Mys-Nssb-Nspe)4-NH2] contains 1/3 isoleucine-like Nssb monomers in place of Nspe. The variant sequences were designed to effect changes in chirality, length, hydrophobicity, charge, and amphipathicity. All of these compounds were tested for antibacterial activity against representative BSL1 Gram-negative (E. coli JM109) and Gram-positive (B. subtilis BR151) bacterial strains. As an initial measure of selectivity, the lytic activity of the peptoids was determined against human erythrocytes. Table 1 summarizes the sequences synthesized, the solvent composition at RP-HPLC elution as a relative measure of molecular hydrophobicity, and antibacterial and hemolytic activities.
Following synthesis, peptoid oligomers can be cleaved from the resin, simultaneously removing the tert-butoxycarbonyl (Boc) protecting group from Mys residues, by treatment with 10 ml 2,2,2-trifluoroacetic acid (TFA)/triisopropylsilane/H2O (95:2.5:2.5 by volume) for 30 min. The cleavage mixture is then diluted with 25 ml 50% aqueous acetonitrile, frozen, and lyophilized. Dilution and lyophilization is repeated twice more in order to remove excess TFA. Subsequent to cleavage, peptoids are each purified to >97% homogeneity by preparative scale reversed-phase HPLC using a Waters Prep LC 4000 system, with Waters 2487 dual-wavelength UV detection, and gradient elution (solvent A, 0.1 vol % trifluoroacetic acid (TFA) in water; solvent B, 0.1 vol % TFA in acetonitrile) through a Vydac (Hysperia, Calif.) 214TP101550 C4 peptide/protein column (10-15 μm, 300 Å, 5×25 cm). Following prep HPLC, peptoid purities and crude yields were determined from analytical scale HPLC, performed with a Waters 2695 Separations Module with a Waters 2487 dual-wavelength UV detector and gradient elution (solvent A, 0.1 vol % TFA in water; solvent B, 0.1 vol % TFA in acetonitrile) through a Vydac C4 214TP53 peptide/protein column (5 μm, 300 Å, 3.2×250 mm). The precise gradient employed for HPLC depended on the identity and hydrophobicity of the oligomer in question. All analytical HPLC was performed at 0.5 ml/min flow and 58° C. Preparative HPLC was performed at 50 ml/min flow and room temperature.
Compound synthesis and purification. Peptoids were synthesized using an ABI 433A peptide synthesizer (Applied Biosystems, Inc.) on Rink amide MBHA resin (Novabiochem, Inc.) using the submonomer approach^3. Briefly, bromoacetic acid, activated by diisopropylcarbodiimide was used to form a bromocetylated intermediate on the terminal amide group. Bromide was then substituted with the desired primary amine through SN2 displacement to build the peptoid chain. The amines used in peptoid synthesis include benzylamine, octadecylamine, (s)-(+)-2-amino-3-methylbutane, (s)-α-methylbenzylamine, (r)-(α-methylbenzylamine (all purchased from Sigma-Aldrich), and N-tert-butoxycarbonyl-1,4 diaminobutane (Mys) that was made using a published procedure^83. Resin-bound peptoids were then exposed to a mixture of trifluoroacetic acid (TFA): triisopropylsilane:water (95:2.5:2.5, v:v:v) for ten minutes to cleave peptoids from the solid phase. Peptoids were purified by reversed-phase HPLC (RP-HPLC) (Waters Corporation) using a C18 column and a linear acetonitrile/water gradient. A final purity greater than 97% as measured by analytical RP-HPLC (Waters Corporation) was achieved, and the identity of each molecule was checked using electrospray ionization mass spectrometry. […]

For `C[C@@H](c1ccccc1)N(CC(N)=O)C(=O)CN(C(=O)CN(CCCCN)C(=O)CN(Cc1ccccc1)C(=O)CN(Cc1ccccc1)C(=O)CN(CCCCN)C(=O)CN(C(=O)CN(C(=O)CN(CCCCN)C(=O)CN(Cc1ccccc1)C(=O)CN(Cc1ccccc1)C(=O)CNCCCCN)[C@@H](C)c1ccccc1)[C@@H](C)c1ccccc1)[C@@H](C)c1ccccc1` [1-Npm2,3,8,9, H-(Nlys-Npm-Npm-Nlys-Nspe-Nspe)2-NH2], the ID50 in series [1] amounted to 15 µM. In the series “MTS assay, NIH 3T3 cells”, this compound displayed a CC50 at 3 h of 15 µM. For the same compound, the “E. coli MIC” value in the series on E. coli ATCC 35218 came to 6.3 µM.
Compound `C[C@@H](c1ccccc1)N(CC(N)=O)C(=O)CN(C(=O)CN(CCCCN)C(=O)CN(C(=O)CN(C(=O)CN(CCCCN)C(=O)CN(C(=O)CN(C(=O)CN(CCCCN)C(=O)[C@@H]1CCCN1C(=O)CN(C(=O)CNCCCCN)[C@@H](C)c1ccccc1)[C@@H](C)c1ccccc1)[C@@H](C)c1ccccc1)[C@@H](C)c1ccccc1)[C@@H](C)c1ccccc1)[C@@H](C)c1ccccc1` [1-Pro3, H-Nlys-Nspe-L-Pro-(Nlys-Nspe-Nspe)3-NH2] (H-[Nlys][Nspe]P[Nlys][Nspe][Nspe][Nlys][Nspe][Nspe][Nlys][Nspe][Nspe]-NH2) came in with an ID50 in series [1] of 12 µM. In “MTS assay, NIH 3T3 cells”, this compound had a CC50 at 3 h of 12 µM. For the same compound, the “E. coli MIC” value with E. coli ATCC 35218 came to 12.5 µM. The compound also came in with an HD10 in the series with human erythrocytes of 74 µM.
On to `C[C@@H](c1ccccc1)N(CC(N)=O)C(=O)CN(C(=O)CN(CCCCN)C(=O)[C@@H]1CCCN1C(=O)CN(C(=O)CN(CCCCN)C(=O)CN(C(=O)CN(C(=O)CN(CCCCN)C(=O)CN(C(=O)CN(C(=O)CNCCCCN)[C@@H](C)c1ccccc1)[C@@H](C)c1ccccc1)[C@@H](C)c1ccccc1)[C@@H](C)c1ccccc1)[C@@H](C)c1ccccc1)[C@@H](C)c1ccccc1` [1-Pro9, H-(Nlys-Nspe-Nspe)2-Nlys-Nspe-L-Pro-Nlys-Nspe-Nspe-NH2] (H-[Nlys][Nspe][Nspe][Nlys][Nspe][Nspe][Nlys][Nspe]P[Nlys][Nspe][Nspe]-NH2), for which, in series [1], the ID50 worked out at 24 µM. In the series “MTS assay, NIH 3T3 cells”, this compound came in with a CC50 at 3 h of 24 µM. For the same compound, in the series on E. coli ATCC 35218, the “E. coli MIC” value turned out to be 12.5 µM.
Regarding `C[C@@H](c1ccccc1)N(CC(=O)N(CC(=O)N(CCCCN)CC(=O)N(CC(=O)N(CC(=O)N(CCCCN)CC(=O)N(CC(=O)N(CC(=O)N(CCCCN)CC(=O)N(CC(=O)N(CC(N)=O)Cc1ccccc1)Cc1ccccc1)Cc1ccccc1)Cc1ccccc1)Cc1ccccc1)Cc1ccccc1)Cc1ccccc1)C(=O)CNCCCCN` [1ach-Nspe2, H-(Nlys-Nspe-Npm)-(Nlys-Npm-Npm)3-NH2] (H-[Nlys][Nspe][Nphe][Nlys][Nphe][Nphe][Nlys][Nphe][Nphe][Nlys][Nphe][Nphe]-NH2), the ID50 in series [1] came to 11 µM. In the series “MTS assay, NIH 3T3 cells”, this compound came in with a CC50 at 3 h of 11 µM. In the series with E. coli ATCC 35218, the “E. coli MIC” value stood at 6.3 µM.
Turning to `C[C@@H](c1ccccc1)N(CC(N)=O)C(=O)CN(Cc1ccccc1)C(=O)CN(CCCCN)C(=O)CN(Cc1ccccc1)C(=O)CN(Cc1ccccc1)C(=O)CN(CCCCN)C(=O)CN(Cc1ccccc1)C(=O)CN(Cc1ccccc1)C(=O)CN(CCCCN)C(=O)CN(Cc1ccccc1)C(=O)CN(Cc1ccccc1)C(=O)CNCCCCN` [1achiral-Nspe12, H-(Nlys-Npm-Npm)3-(Nlys-Npm-Nspe)-NH2], the ID50 in series [1] came to 15 µM. Also, the CC50 at 3 h in “MTS assay, NIH 3T3 cells” is 15 µM. Besides, the “E. coli MIC” value with E. coli ATCC 35218 came to 6.3 µM. For the same compound, in the series on human erythrocytes, the HD50 was > 200 µM.
Turning to `CC[C@H](C)[C@H](NC(=O)CN)C(=O)NCC(=O)N[C@@H](C)C(=O)N[C@H](C(=O)N[C@@H](CC(C)C)C(=O)N[C@@H](CCCCN)C(=O)N[C@H](C(=O)N[C@@H](CC(C)C)C(=O)N[C@H](C(=O)N[C@H](C(=O)NCC(=O)N[C@@H](CC(C)C)C(=O)N1CCC[C@H]1C(=O)N[C@@H](C)C(=O)N[C@@H](CC(C)C)C(=O)N[C@H](C(=O)N[C@@H](CO)C(=O)N[C@@H](Cc1c[nH]c2ccccc12)C(=O)N[C@H](C(=O)N[C@@H](CCCCN)C(=O)N[C@@H](CCCNC(=N)N)C(=O)N[C@@H](CCCCN)C(=O)N[C@@H](CCCNC(=N)N)C(=O)N[C@@H](CCC(N)=O)C(=O)N[C@@H](CCC(N)=O)C(N)=O)[C@@H](C)CC)[C@@H](C)CC)[C@@H](C)O)[C@@H](C)O)C(C)C)C(C)C` [melittin, reference compound], the “% ACN at RP-HPLC elution” value in series [2] came out at 65.2 % ACN. The “MIC for E. coli ATCC 35218” value with E. coli ATCC 35218 (Table 8, CAMHB) stood at 12.5 µM. In the series with E. coli ATCC 35218 (Table 8, calculated as HD10/E. coli MIC), the SR is on record as 0.16. In the series on human erythrocytes (Table 8), this compound registered an HD50 of 6 µM.

Source of the values: patent publication US20120295838A1, “Selective poly-substituted glycine antibiotics and related compositions” (priority 2008, published 2012).
